Results taken from US20130143929A1, “FUNGICIDAL IMIDAZOLES” (EI DU PONT DE NEMOURS AND COMPANY, priority 2010, published 2013).
Marks after values point to notes of the source that are not given here.

Columns and labels:
Type in all cases: in vivo
[1] = tested on: Puccinia recondite f. sp. tritici (the causal agent of wheat leaf rust); assay: Test A: wheat leaf rust, preventive spray on wheat seedlings, visual disease rating; details: wheat leaf rust, preventive spray on wheat seedlings
Method in brief: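 Wheat seedlings were sprayed to run-off with compound suspended in acetone/water containing 250 ppm Trem 014 (200 ppm ≈ 800 g/ha; some at 40 ppm). Puccinia recondite spores were inoculated the next day. Plants were held 24 h saturated at 20° C, then 7 days at 20° C, and disease control was rated visually on a 0–100 scale against controls.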

[2] = tested on: Septoria tritici (the causal agent of wheat leaf blotch); assay: Test B: wheat leaf blotch, preventive spray on wheat seedlings, visual disease rating; details: wheat leaf blotch, preventive spray on wheat seedlings
Method in brief: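 Wheat seedlings sprayed to run-off with compound suspension (acetone/water with 250 ppm Trem 014; 200 ppm ≈ 800 g/ha, some at 40 ppm), inoculated next day with Septoria tritici spores. 48 h saturated humidity at 24 °C, then 19 days at 20 °C; visual rating, 100 = full control.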

[3] = tested on: Botrytis cinerea (the causal agent of tomato Botrytis); assay: Test C: tomato Botrytis, preventive spray on tomato seedlings, visual disease rating; details: tomato Botrytis, preventive spray on tomato seedlings
Method in brief: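 Test suspension (acetone/water with 250 ppm Trem 014; 200 ppm equivalent to 800 g/ha) sprayed to run-off on tomato seedlings; B. cinerea spores inoculated next day. After 48 h saturated humidity at 20° C then 3 days at 24° C, disease rated visually as % control relative to untreated controls (0–100).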

[4] = tested on: Blumeria graminis f. sp. tritici (also known as Erysiphe graminis f. sp. tritici, the causal agent of wheat powdery mildew); assay: Test D: wheat powdery mildew, preventive spray on wheat seedlings, visual disease rating; details: wheat powdery mildew, preventive spray on wheat seedlings
Method in brief: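 Compound suspended in acetone/water (50/50) with 250 ppm Trem 014 and sprayed to run-off on wheat seedlings (200 ppm ≈ 800 g/ha), then inoculated next day with spore dust. Disease rated visually after 8 days at 20 °C as % control relative to untreated plants (0-100).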

[5] = asterisk: 40 ppm test suspension
[6] = no asterisk (standard test suspension concentration, not 40 ppm)

Row | SMILES | Test A rating (100 = 100% disease control, 0 = no disease control relative to the controls) [1, 5] | Test B rating (100 = 100% disease control, 0 = no disease control relative to the controls) [2, 5] | Test C rating (100 = 100% disease control, 0 = no disease control relative to the controls) [3, 5] | Test D rating (100 = 100% disease control, 0 = no disease control relative to the controls) [4, 5] | Test A rating (100 = 100% disease control, 0 = no disease control relative to the controls) [1, 6] [%] | Test B rating (100 = 100% disease control, 0 = no disease control relative to the controls) [2, 6] [%] | Test C rating (100 = 100% disease control, 0 = no disease control relative to the controls) [3, 6] [%] | Test D rating (100 = 100% disease control, 0 = no disease control relative to the controls) [4, 6] [%]
1 | Cc1cc(C#N)ccc1C(O)c1c(Br)nc(C)n1-c1c(F)cccc1F (stereo not drawn) [compound 165] | 80* % | 100* % | 8* % | 13* % | – | – | – | –
2 | Cc1nc(Cl)c(C(O)c2ccc(F)cc2Cl)n1-c1c(F)cc(F)cc1F (stereo not drawn) [compound 166] | 100* % | 100* % | 100* % | 43* % | – | – | – | –
3 | Cc1nc(C)n(-c2c(F)cc(F)cc2F)c1C(O)c1ccc(F)cc1Cl (stereo not drawn) [compound 169] | 100* % | 100* % | 40* % | 0* % | – | – | – | –
4 | Cc1ncc(C(O)c2c(F)cc(F)cc2F)n1-c1ccc(F)cc1Cl (stereo not drawn) [compound 170] | – | – | – | – | 99 | 73 | 63 | 0
5 | Cc1ncc(C(O)c2ccc(F)cc2Cl)n1-c1ccc(F)cc1Cl (stereo not drawn) [compound 171] | – | – | – | – | 100 | 100 | 95 | 0
6 | Cc1nc(Br)c(C(O)c2ccc(Cl)cc2)n1-c1ccc(F)cc1Br (stereo not drawn) [compound 172] | – | – | – | – | 100 | 100 | 100 | 90
7 | Cc1cc(F)ccc1C(O)c1c(Br)nc(C)n1-c1ccc(F)cc1Br (stereo not drawn) [compound 173] | – | – | – | – | 99 | 100 | 16 | 48
8 | Cc1ncc(C(O)c2c(F)cc(F)cc2F)n1-c1ccc(F)cc1Br (stereo not drawn) [compound 174] | – | – | – | – | 88 | 35 | 0 | 0
9 | Cc1ncc(C(O)c2c(F)cc(F)cc2F)n1-c1ccc(F)cc1F (stereo not drawn) [compound 175] | – | – | – | – | 97 | 3 | 9 | 0
10 | Cc1nc(Br)c(C(O)c2c(F)cc(F)cc2F)n1-c1ccc(F)cc1Br (stereo not drawn) [compound 176] | – | – | – | – | 100 | 100 | 100 | 96
11 | Cc1nc(Br)c(C(O)c2c(F)cc(F)cc2F)n1-c1ccc(F)cc1F (stereo not drawn) [compound 177] | – | – | – | – | 100 | 100 | 99 | 0
12 | Cc1nc(Br)c(C(O)c2ccc(F)cc2F)n1-c1c(F)cccc1F (stereo not drawn) [compound 178] | 100* % | 100* % | 96* % | 64* % | – | – | – | –
